Results from patent publication US20260055079A1, “PHTHALAZINONE COMPOUNDS AS PARP7 INHIBITORS” (AZKARRA THERAPEUTICS, INC., priority 2022, published 2026).
pIC50: −log10 of the molar value. Read-outs that look alike come from different tables or passages of the source.

Legend:
His-GST-PARP7 = His-GST-PARP7 (Homo sapiens (Human), UniProt Q7Z3E1); experiment: PARP7 biochemical assay; details: read-out: PARP7 IC50
PARP2 = PARP2 (Homo sapiens (Human), UniProt Q9UGN5); experiment: PARP2 biochemical assay
[1] = test system: NCI-H1373 (human lung adenocarcinoma) cells; experiment: Cell proliferation assay (CellTiter-Glo), NCI-H1373; assay type: cell-based; details: Homo sapiens, NCI-H1373, 144 h, read-out: NCI-H1373 GI50

Sequence of PARP2 (Q9UGN5 whole entry): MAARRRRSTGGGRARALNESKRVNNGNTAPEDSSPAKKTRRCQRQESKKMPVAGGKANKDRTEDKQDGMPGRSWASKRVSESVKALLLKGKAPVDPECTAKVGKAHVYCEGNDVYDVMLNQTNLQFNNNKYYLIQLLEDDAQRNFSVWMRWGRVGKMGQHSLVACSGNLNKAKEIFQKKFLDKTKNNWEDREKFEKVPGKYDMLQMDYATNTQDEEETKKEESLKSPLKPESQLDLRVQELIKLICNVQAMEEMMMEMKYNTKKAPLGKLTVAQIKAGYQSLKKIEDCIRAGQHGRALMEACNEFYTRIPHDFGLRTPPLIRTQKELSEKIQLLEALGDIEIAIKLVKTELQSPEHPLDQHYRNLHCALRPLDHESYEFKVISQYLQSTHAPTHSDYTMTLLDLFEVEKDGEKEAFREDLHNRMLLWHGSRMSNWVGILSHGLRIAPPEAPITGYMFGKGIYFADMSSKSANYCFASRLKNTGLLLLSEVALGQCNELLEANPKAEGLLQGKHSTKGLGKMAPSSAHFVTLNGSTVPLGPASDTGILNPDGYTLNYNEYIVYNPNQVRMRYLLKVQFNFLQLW
Sequence of His-GST-PARP7 (Q7Z3E1 whole entry): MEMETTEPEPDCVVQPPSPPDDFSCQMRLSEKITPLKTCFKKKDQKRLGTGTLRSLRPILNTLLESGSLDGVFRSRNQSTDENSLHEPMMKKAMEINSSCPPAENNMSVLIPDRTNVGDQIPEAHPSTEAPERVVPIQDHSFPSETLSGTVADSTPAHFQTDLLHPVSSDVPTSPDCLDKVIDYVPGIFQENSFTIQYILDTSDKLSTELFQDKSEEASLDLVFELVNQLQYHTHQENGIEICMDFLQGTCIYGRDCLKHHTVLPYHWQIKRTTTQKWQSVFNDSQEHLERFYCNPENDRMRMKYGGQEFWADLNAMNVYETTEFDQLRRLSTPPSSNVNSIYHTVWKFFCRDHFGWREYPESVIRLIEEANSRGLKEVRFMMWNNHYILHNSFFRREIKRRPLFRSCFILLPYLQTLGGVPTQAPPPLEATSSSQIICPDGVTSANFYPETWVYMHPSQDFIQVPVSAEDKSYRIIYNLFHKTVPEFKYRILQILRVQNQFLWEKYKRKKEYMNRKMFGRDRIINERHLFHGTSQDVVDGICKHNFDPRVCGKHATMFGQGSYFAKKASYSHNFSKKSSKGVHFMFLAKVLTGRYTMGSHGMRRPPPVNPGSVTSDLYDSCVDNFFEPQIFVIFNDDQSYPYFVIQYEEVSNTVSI

Row | Compound | pIC50 (His-GST-PARP7) | pIC50 (PARP2; read-out: PARP2 IC50) | GI50 ([1]; 6 days, CellTiter-Glo) | GI50 [1] | pIC50 (PARP2)
1 | CNc1ccc2c(=O)[nH]nc(Cc3ccc(F)c(C(=O)N4CCN(c5ccc(C#N)cn5)CC4)c3)c2c1 [Example 16, 6-(4-(2-fluoro-5-((7-(methylamino)-4-oxo-3,4-dihydrophthalazin-1-yl)methyl)benzoyl)piperazin-1-yl)nicotinonitrile] | > 7.30 | > 7.30 |  | 1000 to 5000 nM | 
2 | N#Cc1ccc(N2CCN(C(=O)c3cc(Cc4n[nH]c(=O)c5ccc(OC(F)(F)F)cc45)ccc3F)CC2)nc1 [Example 30, 6-(4-(2-fluoro-5-((4-oxo-7-(trifluoromethoxy)-3,4-dihydrophthalazin-1-yl)methyl)benzoyl)piperazin-1-yl)nicotinonitrile] | > 7.30 | 6.30 to 7.00 | 100 to 1000 nM |  | 
3 | N#Cc1ccc(N2CCN(C(=O)c3cc(Cc4n[nH]c(=O)c5ccc(OC6CC6)cc45)ccc3F)CC2)nc1 [Example 13, 6-(4-(5-((7-Cyclopropoxy-4-oxo-3,4-dihydrophthalazin-1-yl)methyl)-2-fluorobenzoyl)piperazin-1-yl)nicotinonitrile] | > 7.30 |  |  | 100 to 1000 nM | 6.30 to 7.00
4 | CC#Cc1ccc2c(=O)[nH]nc(Cc3ccc(F)c(C(=O)N4C5CCC4CN(c4ccc(C#N)cn4)C5)c3)c2c1 [Example 62, 6-(8-(2-Fluoro-5-((4-oxo-7-(prop-1-yn-1-yl)-3,4-dihydrophthalazin-1-yl)methyl)benzoyl)-3,8-diazabicyclo[3.2.1]octan-3-yl)nicotinonitrile] | > 7.30 |  |  |  | 5.70 to 6.30
5 | CC#Cc1cc(Cl)c2c(=O)[nH]nc(Cc3ccc(F)c(C(=O)N4CCN(c5ccc(C#N)cn5)CC4)c3)c2c1 [Example 85, 6-(4-(5-((5-chloro-4-oxo-7-(prop-1-yn-1-yl)-3,4-dihydrophthalazin-1-yl)methyl)-2-fluorobenzoyl)piperazin-1-yl)nicotinonitrile] | 6.30 to 7.00 | 7.00 to 7.30 | < 100 nM |  | 
6 | 6-(4-(2-Fluoro-5-((4-oxo-7-(prop-2-yn-1-yloxy)-3,4-dihydrophthalazin-1-yl)methyl)benzoyl)piperazin-1-yl)nicotinonitrile [Example 26] | > 7.30 | 6.30 to 7.00 |  |  | 
7 | CC#Cc1ccc2c(=O)[nH]nc(Cc3ccc(F)c(C(=O)N4CCN(c5ccc(C#N)cn5)C(C)C4)c3)c2c1 (stereo not drawn) [Example 72, 6-(4-(2-Fluoro-5-((4-oxo-7-(prop-1-ynyl)-3,4-dihydrophthalazin-1-yl)methyl)benzoyl)-2-methylpiperazin-1-yl)nicotinonitrile] | > 7.30 | 6.30 to 7.00 |  |  | 
8 | N#Cc1ccc(N2CCN(C(=O)c3cc(Cc4n[nH]c(=O)c5ccc(C#CC6CC6)cc45)ccc3F)CC2)nc1 [Example 37, 6-(4-(5-((7-(Cyclopropylethynyl)-4-oxo-3,4-dihydrophthalazin-1-yl)methyl)-2-fluorobenzoyl)piperazin-1-yl)nicotinonitrile] | 6.30 to 7.00 | 5.70 to 6.30 |  |  | 
9 | O=C(c1cc(Cc2n[nH]c(=O)c3ccc(C#CC4CC4)cc23)ccc1F)N1CCN(c2ncc(C(F)(F)F)cn2)CC1 [Example 47, 6-(Cyclopropylethynyl)-4-(4-fluoro-3-(4-(5-(trifluoromethyl)pyrimidin-2-yl)piperazine-1-carbonyl)benzyl)phthalazin-1(2H)-one] | 6.30 to 7.00 | 5.70 to 6.30 |  |  | 
10 | N#Cc1ccc(N2CCN(C(=O)c3cc(Cc4n[nH]c(=O)c5ccc(N6CC7(CC(O)C7)C6)cc45)ccc3F)CC2)nc1 [Example 23, 6-(4-(2-Fluoro-5-((7-(6-hydroxy-2-azaspiro[3.3]heptan-2-yl)-4-oxo-3,4-dihydrophthalazin-1-yl)methyl)benzoyl)piperazin-1-yl)nicotinonitrile] | > 7.30 | 5.70 to 6.30 | > 5000 nM |  | 
11 | CN(C)CC#Cc1ccc2c(=O)[nH]nc(Cc3ccc(F)c(C(=O)N4CCN(c5ncc(C(F)(F)F)cn5)CC4)c3)c2c1 [Example 46, 6-(3-(Dimethylamino)prop-1-yn-1-yl)-4-(4-fluoro-3-(4-(5-(trifluoromethyl)pyrimidin-2-yl)piperazine-1-carbonyl)benzyl)phthalazin-1(2H)-one] | > 7.30 | 6.30 to 7.00 |  |  | 

Second part, led by results:

Row | pIC50 (His-GST-PARP7) | pIC50 (PARP2; read-out: PARP2 IC50) | GI50 ([1]; 6 days, CellTiter-Glo) | Compound | GI50 [1] | pIC50 (PARP2)
12 | > 7.30 | 5.70 to 6.30 | 100 to 1000 nM | N#Cc1ccc(N2CCN(C(=O)c3cc(Cc4n[nH]c(=O)c5ccc(N6CC(C(F)(F)F)C6)cc45)ccc3F)CC2)nc1 [Example 34, 6-(4-(2-Fluoro-5-((4-oxo-7-(3-(trifluoromethyl)azetidin-1-yl)-3,4-dihydrophthalazin-1-yl)methyl)benzoyl)piperazin-1-yl)nicotinonitrile] |  | 
13 | > 7.30 | < 5.70 | 100 to 1000 nM | CC#Cc1ccc2c(=O)[nH]nc(C(C)N(C)CCC(=O)N3CCN(c4ncc(C(F)(F)F)cn4)CC3)c2c1 (stereo not drawn) [Example 193, 4-(1-(methyl(3-oxo-3-(4-(5-(trifluoromethyl)pyrimidin-2-yl)piperazin-1-yl)propyl)amino)ethyl)-6-(prop-1-yn-1-yl)phthalazin-1(2H)-one] |  | 
14 | > 7.30 | < 5.70 | 100 to 1000 nM | N#Cc1ccc(N2CCN(C(=O)c3cc(Cc4n[nH]c(=O)c5ccc(N6CC7(CCC7)C6)cc45)ccc3F)CC2)nc1 [Example 31, 6-(4-(2-Fluoro-5-((4-oxo-7-(2-azaspiro[3.3]heptan-2-yl)-3,4-dihydrophthalazin-1-yl)methyl)benzoyl)piperazin-1-yl)nicotinonitrile] |  | 
15 | > 7.30 | > 7.30 | 100 to 1000 nM | N#Cc1ccc(N2CCN(C(=O)c3cc(Cc4n[nH]c(=O)c5ccc(NCC6CC6)cc45)ccc3F)CC2)nc1 [Example 20, 6-(4-(5-((7-(cyclopropylmethylamino)-4-oxo-3,4-dihydrophthalazin-1-yl)methyl)-2-fluorobenzoyl)piperazin-1-yl)nicotinonitrile] |  | 
16 | > 7.30 | > 7.30 |  | CC#Cc1ccc2c(=O)[nH]nc(Cc3ccc(F)c(C(=O)N4CCN(c5ccc(C#N)cn5)CC4C)c3)c2c1 (stereo not drawn) [Example 61, 6-(4-(2-Fluoro-5-((4-oxo-7-(prop-1-yn-1-yl)-3,4-dihydrophthalazin-1-yl)methyl)benzoyl)-3-methylpiperazin-1-yl)nicotinonitrile] |  | 
17 | > 7.30 | < 5.70 |  | CC#Cc1ccc2c(=O)[nH]nc(Cc3ccc(F)c(C(=O)NCCN(CC)c4ccc(C#N)cn4)c3)c2c1 [Example 197, N-(2-((5-cyanopyridin-2-yl)(ethyl)amino)ethyl)-2-fluoro-5-((4-oxo-7-(prop-1-yn-1-yl)-3,4-dihydrophthalazin-1-yl)methyl)benzamide] |  | 
18 | 7.00 to 7.30 | > 7.30 | 100 to 1000 nM | CC(F)(F)c1ccc2c(=O)[nH]nc(Cc3ccc(F)c(C(=O)N4CCN(c5ccc(C#N)cn5)CC4)c3)c2c1 [Example 36, 6-(4-(5-((7-(1,1-Difluoroethyl)-4-oxo-3,4-dihydrophthalazin-1-yl)methyl)-2-fluorobenzoyl)piperazin-1-yl)nicotinonitrile] |  | 
19 | > 7.30 | 6.30 to 7.00 |  | N#Cc1ccc(N2CCN(C(=O)c3cc(Cc4n[nH]c(=O)c5ccc(C6CC6)cc45)ccc3F)CC2)nc1 [Example 40, 6-(4-(5-((7-Cyclopropyl-4-oxo-3,4-dihydrophthalazin-1-yl)methyl)-2-fluorobenzoyl)piperazin-1-yl)nicotinonitrile] |  | 
